# Measured values: paper PMC10541198, “Specific quinone reductase 2 inhibitors reduce metabolic burden and reverse Alzheimer’s disease phenotype in mice” (The Journal of Clinical Investigation, 2023)
# Several values for one entry are separate records, joined by “and”; a condition that tells them apart may be missing. Equal entries are not always repeated.
# What was measured:
# Assay type in all cases: in vivo, mouse
# [1] = test system: Amyloid β; test: IHC of amyloid β in 5xFAD brain sections; conditions: for Amyloid β normalized volume (individual mice): CA1, 5xFAD 1 month; for Figure 9B, IHC signal / Sup. Fig. 6-1B, IHC signal: individual animals; for Amyloid β vs vehicle: cortex, 5xFAD 1 month
# From the text: (§1) Following the behavioral experiments, we assessed brain pathologies associated with AD present in the 5xFAD mice ([37]). Therefore, 5 days following the last behavioral experiment, and 1 month after the start of YB-537 consumption, mice were sacrificed, and coronal brain sections were used for IHC. Since the CA1 region of the hippocampus is affected during AD pathogenesis ([37]), and this brain region is involved in the behavioral paradigms used here, we acquired images of CA1. This was done with an Olympus IX83 confocal microscope using the same settings, antibodies, and exposures in all mice. Images were analyzed using Imaris (Bitplane; see methods). For each mouse, 3 coronal sections were used per antibody. In each section, the same region of CA1 was acquired, using the same image frame size and resolution, at all possible depths of the section — using a Z-stack of the whole section — to allow measurement of the fluorescent antibody marker volume, which was normalized to the brain volume from which it was taken. First, we measured oxidative stress, as indicated by 4-HNE ([38]) (Abcam, ab48506).
# (§2) Perfused and fixed brain slices were blocked with 10% normal donkey serum (DNS) and 0.2% triton (Sigma-Aldrich) in PBS. Antibodies, including 4-HNE (AbCam, ab48506), Iba1 (AbCam, ab5076), AT-8 (Thermo, MN1020), Amyloid β (AbCam, ab201060), diluted in PBS with 10% DNS, were incubated at 4°C overnight. Secondary antibodies including donkey-anti-goat Alexa Fluor 568 (AbCam, ab175704), donkey-anti-mouse Cy 5 (Jackson Immuno Research, 715-175-151), and donkey-anti-rabbit DyLight 488 (AbCam, ab98488) all diluted 1:500 in PBS with 1% BSA, were applied to the slices at RT for 2 hours the next day. Slices were mounted onto glass slides using DAPI containing Vectashield (H-1200). Images were taken using a confocal microscope (Olympus IX83). Three slices were used per mouse per antibody. Tiling images of the dorsal CA1 and cortex (Bregma: –1.58mm to –2.30mm) were taken using ×20 objective, acquiring a Z-stack of the whole section. Analysis of the images was done blind by an experimenter unaware of the experimental conditions or details, using Imaris (Bitplane) software. A surface reconstruction module was used to extract the data as volumes of the used markers (4-HNE, phospho-tau, amyloid β, GFAP, and Iba1). Marker volume and intensity were normalized to the corresponding brain volume. The normalized value was averaged for each triplicate and presented here. […]
# (§3) Brains were then briefly removed and placed in chilled, 4% PFA for 48 h, f oll owe d by immersion in 30% sucrose in 0.1 M PBS for a furt her 48 h. Bra i ns wer e t h e n stored at -80°C, until t he y were sliced into 40µm coronal sections usinga Lei ca CM 1950cryostat. Sli ces were then washed x3 in PBS and bl oc ke d for 1 h at RT using 10% normal donkey serum (DNS) and 0.2% triton (Sigma-Aldrich) in PBS. Antibodies, including 4- HNE (1:500, AbCam, ab48506), Iba1 (1:2,000, AbCam, ab5076), GFAP (Abcam, ab53554), phospho- tau (1:1,000, Thermo, MN1020) and amyloid β (1:1,000, AbCam, ab201060) diluted in PBS with 10% DNS were incubated at 4°C overnight. The next day, the slices were washed x3 times in PBS, and secondary antibodies including donkey anti goat A l e x a Fluor 568 (AbCam, ab175704), donkey anti-mouse Cy 5 (Jackson Immuno Research, 715- 175- 151) and donkey anti-rabbit DyLight 488 (AbCam, ab98488) all diluted 1:500 in PBS with 1% BSA, were applied to the slices at RT for 2 h. Following the incubation, the slices were washed x3 times in PBS, mounted onto gl ass slides, were uniformly covered in DAPI containing Vectashield (H-1200) and coverslips were a dde d. […]
# [2] = test system: 4-HNE; test: IHC of 4-HNE in 5xFAD brain sections; set-up: 4-HNE upper quartile / 4-HNE lower quartile: unit not given here; conditions: for 4-HNE distribution (F test) / 4-HNE lower quartile / 4-HNE normalized volume (individual mice) / 4-HNE upper quartile: CA1, 5xFAD 1 month; for Figure 9A, IHC signal / Sup. Fig. 6-1A, IHC signal: individual animals; for 4-HNE vs vehicle: cortex, 5xFAD 1 month
# From the text: as §1, §2, §3
# [3] = Drinking rate during chronic ingestion; set-up: Sup. Fig. 5-2B, drinking rate: unit: ml/g/day
# Description: Supplementary Figure 6. Chronic Drinking of 50 mg/kg YB -537 for of 1 Month Causes no Changes
# in General Mouse Physiology or Behavior but Improves Nesting Behavior Over Time.
# (A) Weight of male and female, 8–9- month-old 5xFAD mice over the course of 25 days while consuming
# (B) Drinking rate of water or YB-537 in the cages of the 5xFAD mice. […]
structure (smiles),measurement,setting,value
Cc1ccc(-c2cn3cccc(C)c3n2)cc1S(=O)(=O)N1CCNCC1 [YB-537],Amyloid β normalized volume (individual mice),[1]; Females,0.0438 and 0.0503 and 0.0630 and 0.0517 and 0.0415 and 0.0377 and 0.0224
same,Amyloid β normalized volume (individual mice),[1]; Males,0.0456 and 0.0411 and 0.0568 and 0.0482 and 0.0215 and 0.0315 and 0.0453 and 0.0211 and 0.0327
same,Amyloid β normalized volume (individual mice),[1]; Males + Females,0.0438 and 0.0503 and 0.0630 and 0.0315 and 0.0453 and 0.0211 and 0.0327 and 0.0456 and 0.0411 and 0.0568 and 0.0482 and 0.0215 and 0.0517 and 0.0415 and 0.0377 and 0.0224
same,"Figure 9B, IHC signal",[1]; Cortex,0.0014 and 0.0009 and 0.0012 and 0.0011 and 0.0040 and 0.0050 and 0.0062 and 0.0018 and 0.0015
same,"Sup. Fig. 6-1B, IHC signal",[1]; Females,0.0046 and 0.0222 and 0.0056 and 0.0307 and 0.0209 and 0.0044 and 0.0060
same,"Figure 9B, IHC signal",[1]; Hippocampus,0.0022 and 0.0020 and 0.0026 and 0.0016 and 0.0029 and 0.0072 and 0.0052 and 0.0013
same,"Sup. Fig. 6-1B, IHC signal",[1]; Males,0.0033 and 0.0053 and 0.0092 and 0.0140 and 0.0194 and 0.0050 and 0.0040 and 0.0079 and 0.0183
same,Amyloid β vs vehicle,[1]; females,unchanged
same,Amyloid β vs vehicle,[1]; males,insignificantly reduced
same,Amyloid β vs vehicle,[1]; total population,not significantly reduced
same,4-HNE distribution (F test),[2]; Females,significantly changes distribution
same,4-HNE lower quartile,[2]; Females,0.0409
same,4-HNE normalized volume (individual mice),[2]; Females,0.0514 and 0.0389 and 0.0542 and 0.0413 and 0.0409 and 0.0433 and 0.0449
same,4-HNE upper quartile,[2]; Females,0.0514
same,4-HNE normalized volume (individual mice),[2]; Males,0.0457 and 0.0892 and 0.0543 and 0.0490 and 0.0489 and 0.0313 and 0.0587 and 0.0539 and 0.0508
same,4-HNE normalized volume (individual mice),[2]; Males + Females,0.0514 and 0.0389 and 0.0542 and 0.0313 and 0.0587 and 0.0539 and 0.0508 and 0.0457 and 0.0892 and 0.0543 and 0.0490 and 0.0489 and 0.0413 and 0.0409 and 0.0433 and 0.0449
same,4-HNE lower quartile,[2]; both sexes,0.0418
same,4-HNE upper quartile,[2]; both sexes,0.0541
same,4-HNE distribution (F test),[2]; total population,tends to alter distribution
same,"Figure 9A, IHC signal",[2]; Cortex,0.0148 and 0.0125 and 0.0103 and 0.0159 and 0.0128 and 0.0161 and 0.0104 and 0.0145 and 0.0118
same,"Sup. Fig. 6-1A, IHC signal",[2]; Females,0.0214 and 0.0277 and 0.0236 and 0.0333 and 0.0429 and 0.0318 and 0.0155
same,"Figure 9A, IHC signal",[2]; Hippocampus,0.0222 and 0.0139 and 0.0101 and 0.0187 and 0.0170 and 0.0160 and 0.0186 and 0.0121 and 0.0197
same,"Sup. Fig. 6-1A, IHC signal",[2]; Males + Females,0.0231 and 0.0112 and 0.0400 and 0.0392 and 0.0271 and 0.0198 and 0.0429 and 0.0318 and 0.0155 and 0.0214 and 0.0277 and 0.0236 and 0.0333 and 0.0301 and 0.0174 and 0.0275
same,"Sup. Fig. 6-1A, IHC signal",[2]; Males,0.0231 and 0.0112 and 0.0400 and 0.0392 and 0.0271 and 0.0198 and 0.0301 and 0.0174 and 0.0275
same,4-HNE vs vehicle,[2]; females,not significantly altered
same,4-HNE vs vehicle,[2]; males,not significantly altered
same,4-HNE vs vehicle,[2]; total population,not significantly altered
same,average drinking rate,[3]; 5xFAD females,0.170 ± 0.011 mL/g/day
same,average drinking rate,[3]; 5xFAD males,0.170 ± 0.035 mL/g/day
same,"Sup. Fig. 5-2B, drinking rate",[3]; Female,0.159 and 0.182
same,"Sup. Fig. 5-2B, drinking rate",[3]; Male,0.207 and 0.135
